Test results from patent US4937332A, “Cephalosporin derivatives” (Taisho Pharmaceutical Co., Ltd., priority 1987, dated 1990).
≈ marks a conversion by molar mass, not a printed value. Counter-ions that a name gives are not always drawn. Like-named read-outs stand apart in the source and are kept apart here.

Legend:
[1] = tested on: Klebsiella pneumoniae T-25; assay: Minimum inhibitory concentration, agar plate dilution method; type: cell-based
Method: (§1) The antibacterial activity against various bacteria was measured by the agar plate dilution method (inoculum size 10^6 cells/ml), and the results are shown in the following Table 1.

[2] = tested on: Staphylococcus aureus 209P-JC; assay: as above; type: cell-based; settings: read-out: Minimum Inhibitory Concentration
Method: as §1

Escherichia coli A13 = assay: as above; type: cell-based
Method: as §1

[3] = tested on: Morganella morganii IID 602; assay: as above; type: cell-based
Method: as §1

[4] = tested on: Escherichia coli NIJH JC-2; assay: as above; type: cell-based
Method: as §1

[5] = tested on: Staphylococcus aureus K-1; assay: as above; type: cell-based
Method: as §1

in vivo = settings: rat, blood, 50 mg/kg in 5% gum arabic, male wister rats, bioassay
Method: Three male wister rats (7 weeks old) for each group were administered orally with the test compounds, and the change of the concentration of the compound in blood was measured.
Dosage of the test compound:
50 mg/kg (suspended in 5% gum arabic)
Quantitative method: Bioasssay
(test bacterium: Escherichia coil SC507)

[6] = T25, Klebsiella pneumoniae T-25, inoculum size 10^6 cells/ml, read-out: Minimum Inhibitory Concentration
[7] = Staphylococcus aureus 209P-JC, inoculum size 10^6 cells/ml
[8] = Escherichia coli A13, inoculum size 10^6 cells/ml, read-out: Minimum Inhibitory Concentration
[9] = IID602, Morganella morganii IID 602, inoculum size 10^6 cells/ml, read-out: Minimum Inhibitory Concentration
[10] = NIJHJC2, Escherichia coli NIJH JC-2, inoculum size 10^6 cells/ml, read-out: Minimum Inhibitory Concentration
[11] = Klebsiella pneumoniae, T25, read-out: Minimum Inhibitory Concentration
[12] = Staphylococcus aureus, K1, read-out: Minimum Inhibitory Concentration
[13] = Escherichia coli, A13, read-out: Minimum Inhibitory Concentration
[14] = Morganella morganii, IID602, read-out: Minimum Inhibitory Concentration
[15] = Escherichia coli, NIJHJC2, read-out: Minimum Inhibitory Concentration

MIC [1, 6] [µg/mL]	MIC [2, 7] [µg/mL]	MIC (Escherichia coli A13; [8]) [µg/mL]	MIC [3, 9] [µg/mL]	MIC [4, 10] [µg/mL]	MIC ([5]; K1, Staphylococcus aureus K-1, inoculum size 10^6 cells/ml, read-out: Minimum Inhibitory Concentration) [µg/mL]	Compound	MIC [1, 11] [µg/mL]	MIC [5, 12] [µg/mL]	MIC ([2]; Staphylococcus aureus, 209P) [µg/mL]	MIC (Escherichia coli A13; [13]) [µg/mL]	MIC [3, 14] [µg/mL]	MIC [4, 15] [µg/mL]	concentration at 4 h (in vivo; Four Hours after oral administration) [ng/mL]	concentration at 1 h (in vivo; One Hour after oral administration) [ng/mL]	concentration at 2 h (in vivo; Two Hours after oral administration) [ng/mL]
0.39 (≈ 0.717 µM)	6.25 (≈ 11.5 µM)	> 100	0.25 (≈ 0.46 µM)	0.05 (≈ 0.092 µM)	–	COC(=O)/C=C\SC1=C(C(=O)O)N2C(=O)[C@@H](NC(=O)/C(=N\OCC(=O)O)c3csc(N)n3)[C@H]2SC1 [Test compound D]	–	–	–	–	–	–	–	–	–
–	–	–	–	–	–	COC(=O)/C=C\SC1=C(C(=O)[O-])N2C(=O)[C@@H](NC(=O)/C(=N\O)c3csc(N)n3)[C@H]2SC1.[Na+]	0.2	3.13	0.2	6.25	0.05	≤ 0.025	16900	11000	14200
12.5	12.5	> 100	0.39	0.05	> 100	C=CC1=C(C(=O)O)N2C(=O)[C@@H](NC(=O)/C(=N\OCC(=O)O)c3csc(N)n3)[C@H]2SC1 [Test compound C, Cefixime sodium salt]	–	–	–	–	–	–	–	–	–
–	–	–	–	–	–	CC1=C(C(=O)O)N2C(=O)[C@@H](NC(=O)[C@H](N)c3ccccc3)[C@H]2SC1 [Test compound B, Cephalexin]	100 (≈ 288 µM)	> 100	0.78 (≈ 2.25 µM)	> 100	> 100	3.13 (≈ 9.01 µM)	–	–	–
